Read-outs that look alike come from different tables or passages of the source.
Key:
[1] = biological target: human PDI (Homo sapiens (Human), UniProt P07237); assay: Insulin turbidimetric assay of PDI reductase activity; assay type: biochemical
Method: (§1) PDI inhibitors were evaluated in an insulin turbidimetric assay to assess their ability to block the reductase activity of PDI. The assay measured the aggregation of insulin chains by monitoring absorbance at 650 nm as previously described in Jasuja, R. et al. Protein disulfide isomerase inhibitors constitute a new class of antithrombotic agents. J Clin Invest 122, 2104-2113 (2012) (hereinafter “Jasija”). Cleavage of disulfide bonds within insulin by PDI results in aggregation of insulin. When PDI is inhibited, there is a decrease in aggregation of insulin, and therefore a decrease in absorbance signal at 650 nm. Recombinant human PDI expressed and purified from E. coli., mixed with bovine insulin (Sigma), and added to assay plates. The reaction mixture for insulin reduction assays contained 100 mM potassium phosphate, pH 7.4; 0.75 mM DTT, 2 mM EDTA, 0.1 mM bovine insulin, and 0.8 μM purified human PDI in a total volume of 135 μl in a 96 well plate. The progress of the reaction was monitored for 30 min at 23° C. Indicated inhibitors or control buffer was added prior to the addition of enzyme at the concentrations indicated. PDI activity in the presence of compound was determined by the formula, PDI activity (%)={OD(compound+PDI+DTT)−OD(DTT)}/{OD(PDI+DTT)−OD(DTT)}×100 % enzyme inhibition={1−(ODmax(compound+enzyme)/ODmax(buffer control+enzyme)}
IC50 values were calculated using non-linear regression analysis.

[2] = biological target: Thioredoxin (Homo sapiens (Human), UniProt P10599); assay: Insulin turbidimetric assay counter screen, thioredoxin; assay type: biochemical
Method: as §1
(§2) The insulin turbidimetric assay was used with alternative thiol isomerases to evaluate the specificity of inhibitors, as shown in Tables B and C. Other oxidoreductases used to evaluate the specificity of inhibitors include ERp5, thioredoxin (TR), and thioredoxin reductase (TRR).

[3] = biological target: Thioredoxin reductase; assay: Insulin turbidimetric assay counter screen, thioredoxin reductase; assay type: biochemical
Method: as §1, §2

[4] = biological target: ERp57 (Homo sapiens (Human), UniProt P30101); assay: Insulin turbidimetric assay counter screen, ERp57; assay type: biochemical; conditions: Table B; read-out: Counter Screen: Selectivity against other thiol isomerases IC50 ERp57
Method: as §1, §2

[5] = biological target: ERp5 (Homo sapiens (Human), UniProt Q15084); assay: Insulin turbidimetric assay counter screen, ERp5; assay type: biochemical
Method: as §1, §2

[6] = Stability of PDI inhibitors in human plasma; assay type: in vitro ADME; conditions: 1 μM, room temperature
Method: (§3) The stability of PDI inhibitors was measured in the presence of PBS pH 7.4 with 1% DMSO. PDI inhibitors were added to plasma (in triplicate at 1 μM) on six separate plates and allowed to equilibrate at room temperature for 48 hours. At each time point (0, 2, 4, 8, 24, and 48 hours), one plate was removed and an aliquot was taken out from each well and analyzed by UPLC-MS.

[7] = Stability of PDI inhibitors in mouse plasma; assay type: in vitro ADME; conditions: 1 μM, room temperature
Method: as §3

[8] = system: washed platelets; assay: Platelet aggregation (SFLLRN-induced, washed platelets); assay type: cell-based; conditions: inhibition of platelet aggregation; compounds at 30 μM, 30 minutes at 37° C., SFLLRN-initiated
Method: Platelet Rich Plasma (PRP) was prepared from whole blood obtained from individual donors and drawn into Acid Citrate Dextrose (ACD) at 15% of total volume. PGE-1 was added to a final concentration of 0.15 µM to maintain the resting state. PRP was spun at 1000 g×10 minutes and the supernatant was discarded. The platelet pellet was resuspended in Modified HEPES-Tyrodes buffer pH 7.3. The 1× washed platelets were incubated for 20 minutes at 37° C. until they were in a quiescent state. The above washing procedure was then repeated. The 2× washed platelets were allowed to rest for 20 minutes at 37° C. Platelets were then counted and the concentration of platelets in suspension was adjusted to 200,000 platelets/µL. The 2× washed platelets were treated with compounds at 30 µM, and were incubated for 30 minutes at 37° C. Following incubation, platelets were added to a cuvette and stirred at 37° C. in a Chrono-Log Platelet Aggregometer. In order to initiate aggregation, a concentration of SFLLRN, the thrombin receptor activating peptide, sufficient to elicit 60-70% light transmittance was added to the cuvette. Therefore, a range of 2-3 µM SFLLRN was used in order to accommodate small differences in sensitivity to SFLLRN between individual donors. Prior to reading, the aggregometer was scaled so that unstimulated, washed platelets are set to 0% light transmittance, and buffer alone with no platelets is set to 100% light transmittance. The light transmittance of each sample was recorded as a measure of aggregation. Data were recorded as a single point representing maximum aggregation in the presence of compound and were compared to samples exposed to vehicle (DMSO) alone. See Jasuja

[9] = Table A, average of two independent experiments, read-out: PDI_Inhibition_ IC50
[10] = Table B, read-out: PDI_ Inhibition_ IC50
[11] = insulin reductase assay, recombinant human PDI, read-out: PDI_Inhibition_ IC50
[12] = Table B, read-out: Counter Screen: Selectivity against other thiol isomerases IC50 Thioredoxin
[13] = Table B, read-out: Counter Screen: Selectivity against other thiol isomerases IC50 Thioredoxin reductase
[14] = Table C, read-out: Specif. (ERp5, TR, TRR): ERp5
[15] = Table C, read-out: Specif. (ERp5, TR, TRR): TR
[16] = Table C, read-out: Specif. (ERp5, TR, TRR): TRR
[17] = Table B, read-out: Counter Screen: Selectivity against other thiol isomerases IC50 ERp5

Sequence of Thioredoxin (P10599 whole entry, species assumed): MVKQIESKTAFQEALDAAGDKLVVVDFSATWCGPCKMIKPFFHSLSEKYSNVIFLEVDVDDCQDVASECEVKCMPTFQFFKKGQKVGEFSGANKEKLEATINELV
Sequence of ERp5 (Q15084 20-440, species assumed): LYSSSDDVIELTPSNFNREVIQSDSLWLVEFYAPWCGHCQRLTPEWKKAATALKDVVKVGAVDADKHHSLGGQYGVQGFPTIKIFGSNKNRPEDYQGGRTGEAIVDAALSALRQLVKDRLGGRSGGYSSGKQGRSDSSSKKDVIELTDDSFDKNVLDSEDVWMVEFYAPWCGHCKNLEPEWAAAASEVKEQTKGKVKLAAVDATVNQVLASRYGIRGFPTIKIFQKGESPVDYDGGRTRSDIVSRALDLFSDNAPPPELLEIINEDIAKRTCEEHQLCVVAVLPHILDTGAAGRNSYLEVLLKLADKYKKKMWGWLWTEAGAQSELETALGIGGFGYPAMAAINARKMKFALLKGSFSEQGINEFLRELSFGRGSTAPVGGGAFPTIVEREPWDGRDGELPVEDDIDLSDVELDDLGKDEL
Sequence of ERp57 (P30101 25-505, species assumed): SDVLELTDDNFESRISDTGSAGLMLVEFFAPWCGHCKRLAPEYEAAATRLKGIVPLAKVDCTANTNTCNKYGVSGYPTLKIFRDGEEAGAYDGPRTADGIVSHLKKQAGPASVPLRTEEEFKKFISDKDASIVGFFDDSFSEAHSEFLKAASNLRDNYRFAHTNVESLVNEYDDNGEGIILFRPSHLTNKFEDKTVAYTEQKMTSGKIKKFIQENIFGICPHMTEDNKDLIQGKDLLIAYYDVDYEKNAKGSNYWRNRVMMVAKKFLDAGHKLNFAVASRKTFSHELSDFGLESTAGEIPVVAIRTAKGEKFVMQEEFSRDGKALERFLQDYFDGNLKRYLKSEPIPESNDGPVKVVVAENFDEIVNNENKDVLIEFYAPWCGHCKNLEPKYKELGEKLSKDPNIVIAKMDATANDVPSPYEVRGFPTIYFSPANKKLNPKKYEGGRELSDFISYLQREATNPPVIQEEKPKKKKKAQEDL
Sequence of human PDI (P07237 18-508): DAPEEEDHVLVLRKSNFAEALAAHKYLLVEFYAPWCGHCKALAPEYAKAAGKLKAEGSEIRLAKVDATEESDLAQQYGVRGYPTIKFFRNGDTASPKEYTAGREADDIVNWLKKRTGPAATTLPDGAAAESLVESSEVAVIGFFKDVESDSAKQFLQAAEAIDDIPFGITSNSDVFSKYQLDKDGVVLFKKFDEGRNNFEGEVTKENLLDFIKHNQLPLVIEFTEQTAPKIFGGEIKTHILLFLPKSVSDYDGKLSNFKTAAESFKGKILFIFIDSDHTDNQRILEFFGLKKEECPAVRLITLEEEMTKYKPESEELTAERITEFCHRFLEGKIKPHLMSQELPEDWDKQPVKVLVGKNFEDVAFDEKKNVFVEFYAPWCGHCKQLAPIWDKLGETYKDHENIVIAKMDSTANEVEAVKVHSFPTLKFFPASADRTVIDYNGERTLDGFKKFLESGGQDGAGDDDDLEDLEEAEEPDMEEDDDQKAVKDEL

SMILES | IC50 [1, 9] | IC50 [1, 10] | IC50 [1, 11] | IC50 [2, 12] | IC50 [3, 13] | IC50 [4] | IC50 ([1]; Table C, PDI, read-out: IC50) | IC50 [5, 14] | IC50 [2, 15] | IC50 [3, 16] | Plasma stability human [6] | Plasma stability mouse [7] | Platelet Aggregation [8] | IC50 [5, 17]
CCN(C)C(=O)C1(CCOc2ccccc2)CCN(Cc2ccc(O)c(Cl)c2)CC1 [Compound 16] | 3 µM | 3 µM | 3 µM | > 30 µM | > 30 µM | > 30 µM |  |  |  |  |  |  |  | 
CCOC(=O)C1(CCOc2ccccc2)CCN(Cc2ccc(OC)c(Cl)c2)CC1 [Compound 4] | > 30 µM | > 30 µM | > 30 µM | > 30 µM | > 30 µM | > 30 µM |  |  |  |  |  |  |  | 
CCOC(=O)C1(CCOc2ccccc2)CCN(Cc2ccc3[nH]c(=O)oc3c2)CC1 [Compound 8] | > 30 µM |  | > 30 µM |  |  |  |  |  |  |  |  |  |  | 
O=C(N1CCCC1)C1(CCOc2ccccc2)CCN(Cc2ccc(O)c(Cl)c2)CC1 [Compound 18] | > 30 µM |  | > 30 µM |  |  |  |  |  |  |  |  |  |  | 
O=C(Nc1ccccc1)C1(CCOc2ccccc2)CCN(Cc2ccc(O)c(Cl)c2)CC1 [Compound 19] | 22.5 µM | 22.5 µM | 22.5 µM | > 30 µM | > 30 µM | > 30 µM |  |  |  |  |  |  |  | 
CCOC(=O)C1(CCOc2ccccc2)CCN(C(=O)c2ccc(O)c(Cl)c2)CC1 [Compound 9] | 2.25 µM | 2.25 µM | 2.25 µM | > 30 µM | > 30 µM | > 30 µM | 2.25 µM | > 30 µM | > 30 µM | > 30 µM | 100% | 100% | 100% | 
CCOC(=O)C1(CCOc2ccccc2)CCN(Cc2ccc(O)c(Cl)c2)CC1 [Compound 1, Ethyl 1-(3-chloro-4-hydroxybenzyl)-4-(2-phenoxyethyl)piperidine-4-carboxylate] | 0.25 µM | 0.25 µM | 0.25 µM | > 30 µM | > 30 µM | > 30 µM | 0.3 to 0.6 µM | > 30 µM | > 30 µM | > 30 µM | 100% | 5.3% | 25-50% | > 30 µM
CCNC(=O)C1(CCOc2ccccc2)CCN(Cc2ccc(O)c(Cl)c2)CC1 [Compound 15] | > 30 µM |  | > 30 µM |  |  |  |  |  |  |  |  |  |  | 
CCOC(=O)C1(CCOc2ccccc2)CCN(Cc2ccc(OC)cc2)CC1 [Compound 6] | > 30 µM |  | > 30 µM |  |  |  |  |  |  |  |  |  |  | 
O=C(NC1CCCC1)C1(CCOc2ccccc2)CCN(Cc2ccc(O)c(Cl)c2)CC1 [Compound 17] | 4 µM | 4 µM | 4 µM | > 30 µM | > 30 µM | > 30 µM |  |  |  |  |  |  |  | 
CC(C)OC(=O)C1(CCOc2ccccc2)CCN(Cc2ccc(O)c(Cl)c2)CC1 [Compound 13] | 0.85 µM | 0.85 µM | 0.85 µM | > 30 µM | > 30 µM | > 30 µM | 0.85 µM | > 30 µM | > 30 µM | > 30 µM | 97.9% | 75.3% | 97% | > 30 µM
C=CCOc1ccc(CN2CCC(CCOc3ccccc3)(C(=O)OCC)CC2)cc1Cl [Compound 5] | > 30 µM |  | > 30 µM |  |  |  |  |  |  |  |  |  |  | 
CCOC(=O)C1(CCOc2ccccc2)CCN(Cc2ccc(O)cc2)CC1 [Compound 7] |  | 15 µM |  | > 30 µM | > 30 µM | > 30 µM |  |  |  |  |  |  |  | 
CC(C)(C)OC(=O)C1(CCOc2ccccc2)CCN(Cc2ccc(O)c(Cl)c2)CC1 [Compound 14] | 0.65 µM | 0.65 µM | 0.65 µM | > 30 µM | > 30 µM | > 30 µM | 0.65 µM | > 30 µM | > 30 µM | > 30 µM | 98.7% | 95.6% | 100% | > 30 µM

Reference: patent US10064853B2, “Compounds for use in methods for treating diseases or conditions mediated by protein disulfide isomerase” (Beth Israel Deaconess Medical Center, Inc., priority 2013, dated 2018)
